From ChEMBL document CHEMBL1799929, “Efficient sequential synthesis of PET Probes of the COX-2 inhibitor [11C]celecoxib and its major metabolite [11C]SC-62807 and in vivo PET evaluation” (Bioorg Med Chem, 2011)

How the values were obtained:
Format in all cases: ADME, organism-based
[1] = system: Blood; test: Drug uptake in Sprague-Dawley rat blood at 0.29 to 1.3 nmol/body, iv after 40 mins by gamma counting based PET imaging method; details: in vivo
[2] = system: Blood; test: Drug uptake in Sprague-Dawley rat blood at 0.29 to 1.3 nmol/body, iv after 60 mins by gamma counting based PET imaging method; details: in vivo, 1 h
[3] = system: Liver; test: Drug uptake in Sprague-Dawley rat liver at 0.29 to 1.3 nmol/body, iv after 10 mins by gamma counting based PET imaging method; details: in vivo
[4] = system: Liver; test: Drug uptake in Sprague-Dawley rat liver at 0.20 to 1.4 nmol/body, iv within 40 mins by gamma counting based PET imaging method; details: in vivo
[5] = system: Kidney; test: Drug uptake in Sprague-Dawley rat kidney at 0.20 to 1.4 nmol/body, iv after 2 mins by gamma counting based PET imaging method; details: in vivo
[6] = Drug uptake in Sprague-Dawley rat urinary bladder at 0.20 to 1.4 nmol/body, iv after 60 mins by gamma counting based PET imaging method; details: in vivo, 1 h
[7] = system: Liver; test: Drug uptake in Sprague-Dawley rat liver at 0.20 to 1.4 nmol/body, iv after 2 mins by gamma counting based PET imaging method; details: in vivo
[8] = system: Intestine; test: Drug uptake in Sprague-Dawley rat intestine at 0.20 to 1.4 nmol/body, iv after 60 mins by gamma counting based PET imaging method; details: in vivo, 1 h
[9] = Drug uptake in Sprague-Dawley rat bile at 0.20 to 1.4 nmol/body, iv within 40 mins by gamma counting based PET imaging method; details: in vivo
[10] = Drug uptake in Sprague-Dawley rat urine at 0.20 to 1.4 nmol/body, iv within 40 mins by gamma counting based PET imaging method; details: in vivo
[11] = system: Blood; test: Drug uptake in Sprague-Dawley rat blood at 0.20 to 1.4 nmol/body, iv within 40 mins by gamma counting based PET imaging method; details: in vivo

| Compound | Drug uptake [1] | Drug uptake [2] [%ID/ml] | Drug uptake [3] | Drug uptake [4] | Drug uptake [5] [%ID] | Drug uptake [6] [%ID] | Drug uptake [7] [%ID] | Drug uptake [8] [%ID] | Drug uptake [9] | Drug uptake [10] | Drug uptake [11] |
| --- | --- | --- | --- | --- | --- | --- | --- | --- | --- | --- | --- |
| [11CH3]c1ccc(-c2cc(C(F)(F)F)nn2-c2ccc(S(N)(=O)=O)cc2)cc1 | Active | > 1 | Active |  |  |  |  |  |  |  |  |
| NS(=O)(=O)c1ccc(-n2nc(C(F)(F)F)cc2-c2ccc([11C](=O)O)cc2)cc1 |  |  |  | Active | 14 | 22 | 35 | 58 | Active | Active | Active |
